The values that follow come from paper PMC6882484, “Influence of verapamil on the pharmacokinetics of oridonin in rats” (Pharmaceutical Biology, 2019).

Each structure is given as a SMILES string. Read-outs that look alike come from different tables or passages of the source.

Broadly, the Cmax is the maximum level reached in the sampled fluid or tissue. For orientation: AUC(0-t) means exposure summed from dosing to a finite time, without extrapolation to infinity. Usually MRT stands for the average time that molecules of a dose stay in the body. The term Tmax denotes the time at which the peak concentration occurs. As a reminder, the efflux ratio is the permeability from basolateral to apical divided by that in the opposite direction, in the common usage. By Papp B→A is commonly meant the apparent permeability from the basolateral to the apical side of a cell layer. Broadly, the Papp A→B is the apparent permeability from the apical to the basolateral side of a cell layer.

Data set [1] in a line: In vivo pharmacokinetic study of oridonin in rats with or without verapamil pre-treatment. The settings on record: Sprague-Dawley, rat, plasma, po, intragastrical oridonin (40 mg/kg; n = 6, mean ± SD); for CL/F: read-out: CLz/F (oral clearance) (converted). The procedure:
To evaluate the effects of verapamil on the pharmacokinetics of oridonin, the rats were divided into two groups of six animals each. The pre-treatment group was pre-treated with verapamil at a dose of 10 mg/kg/day (dissolved directly in normal saline containing 0.5% methylcellulose at a concentration of 2 mg/mL) for 7 days before the administration of oridonin. […] The dose of verapamil and oridonin were based on previous reports (Xu et al. [2006]; Zhu et al. [2017]; Huang et al. [2018]; Zhou et al. [2019]). The control group was without the pre-treatment of verapamil before the oral administration of oridonin. Blood samples (250 µL) were collected into heparinized tubes via the oculi chorioideae vein at 0.083, 0.33, 0.5, 1, 2, 4, 6, 8, 10, 12, 24 and 36 h after the oral administration of oridonin. The blood samples were centrifuged at 3500 rpm for 5 min. The plasma samples that were obtained were stored at −40 °C until analysis.
To 100 µL aliquot of a plasma sample, 20 µL methanol and 180 µL internal standard methanol solution (2 ng/mL) were added and vortexed for 60 s to mix in a 1.5 mL polypropylene tube, and were centrifuged at 12,000 rpm for 10 min. The supernatant was removed into an injection vial, and a 3 µL aliquot was injected into the LC-MS/MS system for analysis.
The determination of oridonin was performed on Agilent 1290 series liquid chromatography system and an Agilent 6470 triple-quadruple mass spectrometer (Palo Alto, CA, USA). The HPLC/MS conditions and sample preparation were basically according to a validated HPLC method described before (Jin et al. [2015]; Zhang et al. [2019]). The chromatographic analysis of oridonin was performed on a Waters X-Bridge C18 column (3.0 × 100 mm, i.d.; 3.5 µm, USA) at room temperature (25 °C). The mobile phase was water (containing 0.1% formic acid) and acetonitrile (30:70, v:v) with isocratic elution at a flow rate of 0.2 mL/min, and the analysis time was 4 min.
The mass scan mode was positive MRM mode. The precursor ion and product ion are m/z 365.3→347.3 for oridonin and m/z 252.1→155.9 for IS. The collision energy for oridonin and IS were 30 and 20 eV, respectively. The MS/MS conditions were optimized as follows: fragmentor, 110 V; capillary voltage, 3.5 kV; nozzle voltage, 500 V; nebulizer gas pressure (N2), 40 psig; drying gas flow (N2), 10 L/min; gas temperature, 350 °C; sheath gas temperature, 400 °C; sheath gas flow, 11 L/min.
The pharmacokinetic parameters, including the area under the plasma concentration-time curve (AUC), maximal plasma concentration (Cmax), the time for the maximal plasma concentration (Tmax), and the mean residence time (MRT) were calculated using the DAS 3.0 pharmacokinetic software (Chinese Pharmacological Association, Anhui, China).

The nature of data set [2]: Bidirectional transport across Caco-2 cell transwell model. Type of data set: in vitro ADME. The settings on record: human, Caco-2, oridonin 2 µM; for Papp B→A at 2 µM: basolateral to apical. The procedure:
(§1) The Caco-2 cell line was obtained from the American Type Culture Collection (Manassas, VA, USA), and it was performed according to the previous study (Liu et al. [2018]). The Caco-2 cells were cultured in DMEM high glucose medium containing 15% FBS, 1% NEAA and 100 U/mL penicillin and 100 µg/mL streptomycin. The cells were cultured at 37 °C with 5% CO2. For transport studies, the cells at passage 40 were seeded on transwell polycarbonate insert filters (1.12 cm^2 surface, 0.4 µm pore size, 12 mm diameter; Corning Costar Corporation, MA, USA) in 12-well plates at a density of 1 × 10^5 cells/cm^2. Cells were allowed to grow for 21 days. For the first seven days, the medium was replaced every two days, and then daily. The transepithelial electrical resistance (TEER) of the monolayer cells was measured using Millicell ERS-2 (Millipore Corporation, Billerica, MA, USA), and TEER exceeding 400 Ω·cm^2 was used for the flux experiment. The integrity of the Caco-2 monolayers was confirmed by the paracellular flux of Lucifer yellow, which was less than 1% per hour. The alkaline phosphatase activity was validated using an Alkaline Phosphatase Assay Kit. The qualified monolayers were used for transport studies. Before the transport experiments, the cell monolayers were rinsed twice using warm (37 °C) HBSS, then the cells were incubated at 37 °C for 20 min. After preincubation, the cell monolayers were incubated with oridonin in fresh incubation medium added on either the apical or basolateral side for the indicated times at 37 °C. […] The permeability of oridonin (2 µM) in all of the above condition s for both directions, i.e., from the apical (AP) side to the basolateral (BL) side and from the BL side to the AP side, was measured after incubation for 30, 60, 90 and 120 min at 37 °C. In addition, the efflux activity of P-gp was validated using a typical P-gp substrate digoxin (25 µM). The apparent permeability coefficient (Papp) was calculated using the equation of Artursson and Karlsson: Papp=(ΔQ/Δt)×[1/(A×C0)] where Papp is the apparent permeability coefficient (cm/s), ΔQ/Δt (µmol/s) is the rate at which the compound appears in the receiver chamber, C0 (µmol/L) is the initial concentration of the compound in the donor chamber and A (cm^2) represents the surface area of the cell monolayer. Data were collected from three separate experiments, and each was performed in triplicate. In addition, the efflux activity of P-gp was validated using a typical P-gp substrate digoxin (25 µM).

The nature of data set [3]: Metabolic stability in rat liver microsomes. In kind it is in vitro ADME. To be noted: for microsomal CLint at 1 µM: read-out: intrinsic clearance rate; for half-life at 1 µM: read-out: metabolic half-life (t1/2). The procedure: Rat liver microsomes were used to investigate the effects of verapamil on the metabolism clearance of oridonin, and the assay conditions and reaction mixtures were similar to those reported previously (Wang et al. [2017]; Yan et al. [2017]). In brief, 30 µL rat liver microsome (20 mg/mL), 12 µL oridonin solution (100 µM) and 1113 µL PBS buffer (0.1 M, pH 7.4) were added to the centrifuge tubes on ice. There was a 5 min preincubation step at 37 °C before initiating the reaction by adding NADPH-generating system (45 µL) into the microsomal suspension. The effects of verapamil or ketoconazole (a positive CYP3A4 inhibitor) on the metabolic stability of oridonin were investigated by adding 10 µM of verapamil or ketoconazole (12 µL, final concentration of 0.1 µM) to rat liver microsomes and preincubating them for 30 min at 37 °C, followed by the addition of NADPH-generating system. Aliquots of 100 µL were collected from the reaction volumes at 0.083, 0.167, 0.33, 0.5, 1, 2, 4, 8, 12, 24 and 36 h after the addition of oridonin, and 200 µL ice-cold acetonitrile containing esculin was added to terminate the reaction. All the experiments were performed in triplicate. The subsequent sample preparation method was same as the method of plasma sample preparation, and the concentration of oridonin was determined by LC-MS.
The in vitro half-life (t1/2) was obtained using the equation: t1/2=0.693/k; V (µL/mg)=volume of incubation (µL)/protein in the incubation (mg); Intrinsic clearance (Clint) (µL/min/mg protein)=V × 0.693/t1/2.
A general note: Microsomes from liver hold many membrane-bound enzymes, among them those of drug oxidation.

On the set-up of data set [4]: method as in Xu et al. [2006]. To be noted: oral administration in rats; ref Xu et al. [2006]; cited from earlier work.
Data set [5] concerns Caco-2 cell monolayers. The data set can be described thus: Bidirectional transport across Caco-2 cell transwell model. In kind it is in vitro ADME. The settings on record: Caco-2, digoxin 25 µM, verapamil present. The procedure:
as §1

For data set [6], the system named is P-gp. The description is as above. Type of data set: in vitro ADME. To be noted: human; Caco-2, digoxin 25 µM, P-gp substrate validation, without verapamil. The procedure: as §1
Where [7] appears, read: pre-treatment of verapamil (10 mg/kg/day for 7 days).
[8] abbreviates: with verapamil (concentration not stated), verapamil present.

In the case of `C=C1C(=O)[C@]23[C@H](O)[C@H]1CC[C@H]2[C@@]12CO[C@]3(O)[C@@H](O)[C@@H]1C(C)(C)CC[C@@H]2O` [oridonin], the Cmax in data set [1] (40 mg/kg, control without verapamil) came out at 147 ± 10.2 ng/mL. Further, in data set [1] (control without verapamil), the area under the curve AUC(0-t) is 1310 ± 290 ng·h/mL, the mean residence time MRT stood at 9.25 ± 1.1 h, the time of peak concentration (Tmax) was determined as 1 ± 0.12 h and the half-life is 10.9 ± 4.38 h. For the same compound, the CL/F in data set [1] (control without verapamil) is 245 mL/min/kg. Moreover, in data set [1] (setting [7]), the AUC(0-t) was determined as 2230 ± 530 ng·h/mL, the Cmax stood at 194 ± 10.5 ng/mL, the MRT was determined as 11.5 ± 1.5 h and the time of peak concentration (Tmax) was 1 ± 0.18 h. Further, in data set [1] (setting [7]), the half-life is 13.7 ± 4.81 h and the CL/F was 135 mL/min/kg. Also, the efflux ratio at 2 µM in data set [2] (pH 7.4, without verapamil) was determined as 1.67. For the same compound, in data set [2] (setting [8]), the apparent permeability from basolateral to apical (Papp B→A) at 2 µM came out at 0.222 ± 0.032 ×10⁻⁶ cm/s and the efflux ratio at 2 µM stood at 1.15. In addition, in data set [2] (apical to basolateral, HBSS pH 7.4, 37 °C, without verapamil), the apparent permeability from apical to basolateral (Papp A→B) at 2 µM worked out at 0.191 ± 0.015 ×10⁻⁶ cm/s. This compound also yielded a Papp B→A at 2 µM in data set [2] (HBSS pH 7.4, 37 °C, without verapamil) of 0.32 ± 0.016 ×10⁻⁶ cm/s. In data set [3] (pH 7.4, oridonin alone), the microsomal CLint at 1 µM is 40.1 ± 2.5 µL/min/mg and the half-life at 1 µM worked out at 0.577 ± 0.045 h. Also, the half-life at 1 µM in data set [3] (pH 7.4, with verapamil 0.1 µM, in the presence of verapamil) was 0.64 ± 0.055 h. Also, the microsomal CLint at 1 µM in data set [3] (pH 7.4, with verapamil 0.1 µM, verapamil present) stood at 36.1 ± 3.7 µL/min/mg. In addition, the “bioavailability (available after oral administration)” value in data set [4] is 11%.
For `C[C@H]1O[C@@H](O[C@H]2[C@@H](O)C[C@H](O[C@H]3[C@@H](O)C[C@H](O[C@H]4CC[C@@]5(C)[C@H](CC[C@@H]6[C@@H]5C[C@@H](O)[C@]5(C)[C@@H](C7=CC(=O)OC7)CC[C@]65O)C4)O[C@@H]3C)O[C@@H]2C)C[C@H](O)[C@@H]1O` [digoxin], the efflux ratio result in data set [5] is “abrogated”. Besides, in data set [6], the efflux ratio at 25 µM came to 10.1.
